Experiment [1] concerns the target T1, Gastrin/cholecystokinin type B receptor (Rattus norvegicus, UniProt P30553).
T1 sequence (P30553 whole entry): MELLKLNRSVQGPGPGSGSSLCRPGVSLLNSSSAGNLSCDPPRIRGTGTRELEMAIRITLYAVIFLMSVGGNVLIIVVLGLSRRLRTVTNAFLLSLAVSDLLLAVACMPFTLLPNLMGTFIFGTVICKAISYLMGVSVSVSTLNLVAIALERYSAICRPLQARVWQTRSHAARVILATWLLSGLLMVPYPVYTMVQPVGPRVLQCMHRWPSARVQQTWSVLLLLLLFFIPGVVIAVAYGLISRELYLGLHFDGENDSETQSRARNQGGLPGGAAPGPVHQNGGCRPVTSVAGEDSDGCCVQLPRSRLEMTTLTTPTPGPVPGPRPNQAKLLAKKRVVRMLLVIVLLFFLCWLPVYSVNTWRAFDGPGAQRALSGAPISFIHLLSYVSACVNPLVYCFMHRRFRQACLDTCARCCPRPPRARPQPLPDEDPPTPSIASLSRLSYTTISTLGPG
Description: Affinity against Cholecystokinin type B receptor expressed in CHO cells on rat brain. Type of experiment: functional, cell-based.

Experiment [2] deals with T2, Cholecystokinin receptor type A (Cavia porcellus, UniProt Q63931).
T2 sequence (Q63931 whole entry): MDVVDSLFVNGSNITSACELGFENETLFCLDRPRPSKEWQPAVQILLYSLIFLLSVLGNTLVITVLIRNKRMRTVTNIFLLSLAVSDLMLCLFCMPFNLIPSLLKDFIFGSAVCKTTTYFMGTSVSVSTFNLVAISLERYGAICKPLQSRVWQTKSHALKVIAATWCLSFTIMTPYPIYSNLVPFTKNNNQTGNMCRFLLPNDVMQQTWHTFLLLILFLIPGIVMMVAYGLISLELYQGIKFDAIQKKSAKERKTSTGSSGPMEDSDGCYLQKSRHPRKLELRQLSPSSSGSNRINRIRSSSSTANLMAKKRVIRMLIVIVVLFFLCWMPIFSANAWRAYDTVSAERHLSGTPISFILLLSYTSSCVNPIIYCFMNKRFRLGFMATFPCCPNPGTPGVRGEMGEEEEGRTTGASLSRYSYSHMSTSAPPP
Kind of experiment: Affinity against Cholecystokinin type A receptor on guinea pig pancreatic membranes.

The target in experiment [3] is T1, Gastrin/cholecystokinin type B receptor. Kind of experiment: Compound was tested for binding affinity against Cholecystokinin type B receptor expressed in CHO cells on the rat brain. Type of experiment: cell-based.
For experiment [4], the target named is Gastrin/cholecystokinin type B receptor (Cavia porcellus). Kind of experiment: Binding affinity against cholecystokinin type B receptor on guinea pig cortex.

Numbered stars: 1 amine (or outer) side, 2 acyl side, 3 side chain; on linkers, the order of the positions; unused ones are H or OH. Square brackets hold non-standard residues; d marks the D form. Peptide text beside a SMILES is read from it. * marks the point of attachment. NMeNle = CCCC[C@H](NC)C(=O)O; Suc = O=C(CCC(=O)[*:2])[*:1]; Malonamoyl = NC(=O)CC(=O)*; X3 = O=C(CS(=O)(=O)O)*; Boc = CC(C)(C)OC(=O)*; X2 = COC(=O)CC(=O)*; βAla = NCCC(=O)O A value given as a limit tells only on which side of the number the result lay.

The term EC50 denotes the concentration giving half of the maximal effect. Broadly, the Ki is a dissociation constant, usually derived from enzyme kinetics or from competition with a known ligand. Take `CCCC[C@@H](C(=O)N[C@@H](CC(=O)O)C(=O)N[C@@H](Cc1ccccc1)C(N)=O)N(C)C(=O)[C@H](Cc1c[nH]c2ccccc12)NC(=O)CC(N)=O` (Malonamoyl-W[NMeNle]DF-NH2): the response in experiment [1] was half-maximal at 1.64 nM (EC50). Besides, the inhibition constant (Ki) in experiment [2] was 22800 nM. `CCCC[C@H](NC(=O)[C@H](Cc1c[nH]c2ccccc12)NC(=O)[C@H]1CCCCNC(=O)C[C@H](NC(=O)OC(C)(C)C)C(=O)N[C@H](Cc2ccc(OS(=O)(=O)O)cc2)C(=O)N[C@@H](CCCC)C(=O)N1)C(=O)N[C@@H](CC(=O)O)C(=O)N[C@@H](Cc1ccccc1)C(N)=O` came in with an inhibition constant (Ki) in experiment [2] of 2900 nM. `CCCC[C@@H](C(=O)N[C@@H](CC(=O)O)C(=O)N[C@@H](Cc1ccccc1)C(N)=O)N(C)C(=O)[C@H](Cc1c[nH]c2ccccc12)NC(=O)CCNC(=O)OC(C)(C)C` ({Boc-βAla}-W[NMeNle]DF-NH2) yielded a Ki in experiment [2] of 4620 nM. Same read-out and setting: to `CCCC[C@@H](C(=O)N[C@@H](CC(=O)O)C(=O)N[C@@H](Cc1ccccc1)C(N)=O)N(C)C(=O)[C@H](Cc1c[nH]c2ccccc12)NC(=O)CCC(=O)O` (Suc-W[NMeNle]DF-NH2) belongs more than 3000 nM; to `CCCC[C@@H](C(=O)N[C@@H](CC(=O)O)C(=O)N[C@@H](Cc1ccccc1)C(N)=O)N(C)C(=O)[C@H](Cc1c[nH]c2ccccc12)NC(=O)[C@H](C)N`, more than 3000 nM.

`CCCC[C@@H](C(=O)N[C@@H](CC(=O)O)C(=O)N[C@@H](Cc1ccccc1)C(N)=O)N(C)C(=O)[C@H](Cc1c[nH]c2ccccc12)NC(=O)CS(=O)(=O)O` (X3-W[NMeNle]DF-NH2): the EC50 in experiment [1] worked out at 0.56 nM. Take `CCCC[C@@H](C(=O)N[C@@H](CC(=O)O)C(=O)N[C@@H](Cc1ccccc1)C(N)=O)N(C)C(=O)[C@H](Cc1c[nH]c2ccccc12)NC(=O)OC(C)(C)C` (Boc-W[NMeNle]DF-NH2): the inhibitory constant (Ki) is 2.6 nM in experiment [3], more than 5000 nM in experiment [2] and 0.8 nM in experiment [4]. For `CCCC[C@@H](C(=O)N[C@@H](CC(=O)O)C(=O)N[C@@H](Cc1ccccc1)C(N)=O)N(C)C(=O)[C@H](Cc1c[nH]c2ccccc12)NC(=O)[C@@H](C)N`, the Ki in experiment [2] was more than 3000 nM. Still for that read-out and setting: to `CCCC[C@@H](C(=O)N[C@@H](CC(=O)O)C(=O)N[C@@H](Cc1ccccc1)C(N)=O)N(C)C(=O)[C@H](Cc1c[nH]c2ccccc12)NC(=O)CN` (H-GW[NMeNle]DF-NH2) belongs more than 3000 nM; to `C[C@@]1(Cc2c[nH]c3ccccc23)NC(=O)CCCCCCC[C@@H](C(=O)N[C@@H](CC(=O)O)C(=O)N[C@@H](Cc2ccccc2)C(N)=O)NC1=O`, 2210 nM. On to `CCCC[C@@H](C(=O)N[C@@H](CC(=O)O)C(=O)N[C@@H](Cc1ccccc1)C(N)=O)N(C)C(=O)[C@H](Cc1c[nH]c2ccccc12)NC(=O)CC(=O)OC` (X2-W[NMeNle]DF-NH2), for which a half-maximal response in experiment [1] (EC50) required 2 nM. `CCCC[C@@H](C(=O)N[C@@H](CC(=O)O)C(=O)N[C@@H](Cc1ccccc1)C(N)=O)N(C)C(=O)[C@@H](N)Cc1c[nH]c2ccccc12` (H-W[NMeNle]DF-NH2) yielded a Ki in experiment [2] of more than 3000 nM.

(Values after ChEMBL document CHEMBL1133672, “Replacement of glycine with dicarbonyl and related moieties in analogues of the C-terminal pentapeptide of cholecystokinin: CCK(2) agonists displaying a novel binding mode” (J Med Chem, 2000).)
